Patent publication US10808007B2, “Desacetoxytubulysin H and analogs thereof” (WILLIAM MARSH RICE UNIVERSITY, priority 2015, dated 2020)
Where two headings read alike, the source gives them in different places.

Experiments:
Assay type in all cases: cell-based
breast cancer cell lines = experiment: NCI-60 cytotoxicity, breast cancer; conditions: Homo sapiens
Protocol: (§1) A number of the synthesized compounds (i.e. Tb1-Tb23) were evaluated for their activity against a variety of cancer cell lines, namely the NCI-60 human cancer cell line panel representing leukemia, melanoma, lung, colon, brain, ovary, breast, prostate and kidney types of cancer through the In Vitro Cell Line Screening Project (IVCLSP) of the National Cancer Institute (NCI), and a summary of the results is shown in Table 1. […] As there was interest in the activity in certain other cell lines, these and the remaining compounds (Tb1-Tb41, PTb-D42 and PTb-D43) were subjected to further testing against MES SA (uterine sarcoma cells), MES SA DX (multidrug resistant uterine sarcoma cells), and HEK 293T (human embryonic kidney cells). […] Tubulysins are known to be substrates for Pgp pumps (Xiangming, et al., 2013; Kaur, et al., 2006; Szakacs, et al., 2006) as supported by the observed low activities of all tubulysins tested except Tb28, Tb32 and Tb33.

colon cancer cell lines = experiment: NCI-60 cytotoxicity, colon cancer; conditions: Homo sapiens
Protocol: as §1

[1] = test system: prostate cancer cell lines; experiment: NCI-60 cytotoxicity, prostate cancer; conditions: Homo sapiens
Protocol: as §1

[2] = test system: ovarian cancer cell lines; experiment: NCI-60 cytotoxicity, ovarian cancer; conditions: Homo sapiens
Protocol: as §1

[3] = test system: non-small cell lung cancer cell lines; experiment: NCI-60 cytotoxicity, non-small cell lung cancer; conditions: Homo sapiens
Protocol: as §1

[4] = test system: HEK 293T (human embryonic kidney cells); experiment: Cytotoxic assay (CellTiter-Glo, 72 h), HEK 293T; conditions: Homo sapiens, HEK-293T, read-out: IC50 HEK 293T
[5] = test system: MES SA (uterine sarcoma cells); experiment: Cytotoxic assay (CellTiter-Glo, 72 h), MES SA; conditions: Homo sapiens, MES-SA, read-out: IC50 MES SA
[6] = test system: leukemia cancer cell lines; experiment: NCI-60 cytotoxicity, leukemia; conditions: Homo sapiens
Protocol: as §1

[7] = test system: MES SA DX (multidrug resistant uterine sarcoma cells); experiment: Cytotoxic assay (CellTiter-Glo, 72 h), MES SA DX; conditions: Homo sapiens
melanoma cell lines = experiment: NCI-60 cytotoxicity, melanoma; conditions: Homo sapiens
Protocol: as §1

CNS cancer cell lines = experiment: NCI-60 cytotoxicity, CNS cancer; conditions: Homo sapiens
Protocol: as §1

renal cancer cell lines = experiment: NCI-60 cytotoxicity, renal cancer; conditions: Homo sapiens
Protocol: as §1

Row | SMILES | IC50 ([4]; 72 h) [nM] | IC50 [4] [nM] | IC50 ([5]; 72 h) [nM] | IC50 [5] [nM] | IC50 [7] [nM] | also measured
1 | CCC(C)[C@H](NC(=O)[C@H]1CCCCN1C)C(=O)N(C)[C@H](C[C@@H](OC(C)=O)c1nc(C(=O)NC23CC(C(=O)OC)(C2)C3)cs1)C(C)C (stereo in doubt) [Tb14, Methyl 3-(2-((1R,3R)-1-acetoxy-3-((2S,3S)—N,3-dimethyl-2-((R)-1-methylpiperidine-2-carboxamido)-pentanamido)-4-methylpentyl)thiazole-4-carboxamido)bicyclo[1.1.1]pentane-1-carboxylate] | 0.11 | 0.11 | 0.35 | 0.35 | > 50 | GI50 (breast cancer cell lines; NCI-60): 0.267 nM; GI50 (colon cancer cell lines; NCI-60): 0.433 nM; GI50 (colon cancer cell lines; NCI-60, selected value): 0.433 nM; GI50 ([1]; NCI-60): 0.449 nM; GI50 ([1]; NCI-60, selected value): 0.449 nM; GI50 ([2]; NCI-60): 0.256 nM; GI50 ([3]; NCI-60): 0.156 nM; GI50 ([6]; NCI-60): 0.064 nM; GI50 (melanoma cell lines; NCI-60): 0.137 nM; GI50 (melanoma cell lines; NCI-60, selected value): 0.137 nM; GI50 (CNS cancer cell lines; NCI-60): 0.382 nM; GI50 (CNS cancer cell lines; NCI-60, selected value): 0.382 nM; GI50 (renal cancer cell lines; NCI-60): 0.364 nM
2 | CC[C@H](C)[C@H](NC(=O)C12C3C4C1C1C2C3C41NC)C(=O)N(C)[C@H](C[C@@H](OC(C)=O)c1nc(C(=O)N[C@@H](Cc2ccccc2)C[C@H](C)C(=O)OC)cs1)C(C)C (stereo partly drawn) [Tb10, Methyl(2S,4R)-4-(2-((1R,3R)-1-acetoxy-3-((2S,3S)—N,3-dimethyl-2-(4-(methylamino)cubane-1-carboxamido)pentanamido)-4-methylpentyl)thiazole-4-carboxamido)-2-methyl-5-phenylpentanoate] | > 50 |  | > 50 |  | > 50 | GI50 (breast cancer cell lines; NCI-60, selected value): 66.4 nM; GI50 (colon cancer cell lines; NCI-60, selected value): 355 nM; GI50 ([1]; NCI-60, selected value): 500 nM; GI50 ([2]; NCI-60, selected value): 92.6 nM; GI50 ([3]; NCI-60, selected value): 60.2 nM; GI50 ([6]; NCI-60, selected value): 61.3 nM; GI50 (melanoma cell lines; NCI-60, selected value): 49.5 nM; GI50 (CNS cancer cell lines; NCI-60, selected value): 271 nM; GI50 (renal cancer cell lines; NCI-60, selected value): 413 nM
3 | CC(=O)O[C@H](C[C@H](C(C)C)N(C)C(=O)[C@@H](NC(=O)[C@H]1CCCCN1C)C1CC1)c1nc(C(=O)N[C@@H](Cc2ccccc2)C[C@H](C)C(=O)O)cs1 [Tb30, (2S,4R)-4-(2-((1R,3R)-1-Acetoxy-3-((S)-2-cyclopropyl-N-methyl-2-((R)-1-methylpiperidine-2-carboxamido)acetamido)-4-methylpentyl)thiazole-4-carboxamido)-2-methyl-5-phenylpentanoic Acid] | 0.35 |  | 4.09 |  | > 100 | 
4 | CC[C@H](C)[C@H](NC(=O)[C@H]1CCCCN1C)C(=O)N(C)[C@H](C[C@@H](OC(C)=O)c1cccc(C(=O)N[C@@H](Cc2ccccc2)C[C@H](C)C(=O)O)n1)C(C)C [Tb39, (2S,4R)-4-(6-((1R,3R)-1-acetoxy-3-((2S,3S)—N,3-dimethyl-2-((R)-1-methylpiperidine-2 carboxamido)pentanamido)-4-methylpentyl)picolinamido)-2-methyl-5-phenylpentanoic Acid] | 0.194 | 0.194 | 0.891 | 0.891 | < 500 | 
5 | COC(=O)[C@@H](C)C[C@H](Cc1ccccc1)NC(=O)c1csc([C@@H](C[C@H](C(C)C)N(C)C(=O)[C@@H](NC(=O)[C@H]2CCCN2C)C2CC2)OC(C)=O)n1 [Tb26, (2S,4R)-Methyl 4-(2-((1R,3R)-1-acetoxy-3-((S)-2-cyclopropyl-N-methyl-2-((R)-1-methylpyrrolidine-2-carboxamido)acetamido)-4-methylpentyl)thiazole-4-carboxamido)-2methyl-5-phenylpentanoate] | 0.12 | 0.12 | 0.2 | 0.2 | > 100 | 
6 | COC(=O)[C@@H](C)C[C@H](Cc1ccccc1)NC(=O)c1csc([C@@H](C[C@H](C(C)C)N(C)C(=O)[C@@H](NC(=O)[C@H]2CCCCN2C)C(C)C)OC(C)=O)n1 [Tb32, (2S,4R)-Methyl 4-(2-((1R,3R)-1-acetoxy-3-((S)—N,3-dimethyl-2-((R)-1-methylpiperidine-2-carboxamido)butanamido)-4-methylpentyl)thiazole-4-carboxamido)-2-methyl-5-phenylpentanoate] | 0.002 | 0.002 | 0.012 | 0.012 | 1.29 | 
7 | COC(=O)[C@@H](C)C[C@H](Cc1ccccc1)NC(=O)c1csc([C@@H](C[C@H](C(C)C)N(C)C(=O)C2(NC(=O)[C@H]3CCCCN3C)CC2)OC(C)=O)n1 [Tb27, (2S,4R)-Methyl 4-(2-((1R,3R)-1-acetoxy-4-methyl-3-(N-methyl-1-((R)-1-methylpiperidine-2-carboxamido)cyclopropanecarboxamido)pentyl)thiazole-4-carboxamido)-2-methyl-5-phenylpentanoate] | 1.96 |  | 2.46 |  | > 100 | 
8 | COC(=O)[C@@H](C)C[C@H](Cc1ccc(F)cc1)NC(=O)c1csc([C@@H](C[C@H](C(C)C)N(C)C(=O)[C@@H](NC(=O)[C@H]2CCCCN2C)C(C)C)OC(C)=O)n1 [Tb40, Methyl(2S,4R)-4-(2-((1R,3R)-1-acetoxy-3-((S)—N,3-dimethyl-2-((R)-1-methylpiperidine-2-carboxamido)butanamido)-4-methylpentyl)thiazole-4-carboxamido)-5-(4-fluorophenyl)-2-methylpentanoate] | > 1000 |  | 15.6 |  | > 1000 | 
9 | COC(=O)[C@@H](C)C[C@H](Cc1ccccc1)NC(=O)c1cccc([C@@H](C[C@H](C(C)C)N(C)C(=O)[C@@H](NC(=O)[C@H]2CCCCN2C)C2CC2)OC(C)=O)n1 [Tb36, Methyl (2S,4R)-4-(6-((1R,3R)-1-acetoxy-3-((S)-2-cyclopropyl-N-methyl-2-((R)-1-methylpiperidine-2-carboxamido)acetamido)-4-methylpentyl)picolinamido)-2-methyl-5-phenylpentanoate] | 0.631 | 0.631 | 0.308 | 0.308 | > 1000 | 
10 | CC[C@H](C)[C@H](NC(=O)[C@H]1CCCCN1C)C(=O)N(C)[C@H](CCc1nc(C(=O)N[C@@H](Cc2ccccc2)C[C@H](C)C(=O)O)cs1)C(C)C [PTb-D43, pretubulysin D, reference compound] | 109 |  | 409 |  | > 1000 | 
11 | COC(=O)[C@@H](C)C[C@H](Cc1ccccc1)NC(=O)c1csc([C@@H](C[C@H](C(C)C)N(C)C(=O)C2(NC(=O)[C@H]3CCCCN3C)CCC2)OC(C)=O)n1 [Tb28, (2S,4R)-Methyl 4-(2-((1R,3R)-1-acetoxy-4-methyl-3-(N-methyl-1-((R)-1-methylpiperidine-2-carboxamido)cyclobutanecarboxamido)pentyl)thiazole-4-carboxamido)-2-methyl-5-phenylpentanoate] | 0.69 |  | 1.13 |  | 81.7 | 
12 | CC[C@H](C)[C@H](NC(=O)[C@H]1CCCCN1C)C(=O)N(C)[C@H](C[C@@H](OC(C)=O)c1cccc(C(=O)N[C@@H](Cc2ccccc2)C[C@H](C)C(=O)OC)n1)C(C)C [Tb38, Methyl (2S,4R)-4-(6-((1R,3R)-1-acetoxy-3-((2S,3S)—N,3-dimethyl-2-((R)-1-methylpiperidine-2-carboxamido)pentanamido)-4-methylpentyl)picolinamido)-2-methyl-5-phenylpentanoate] | 0.574 | 0.574 | 0.357 | 0.357 | < 500 | 
13 | COC(=O)[C@@H](C)C[C@H](Cc1cn(C)c2ccccc12)NC(=O)c1csc([C@@H](C[C@H](C(C)C)N(C)C(=O)[C@@H](NC(=O)[C@H]2CCCCN2C)C(C)C)OC(C)=O)n1 [Tb41, Methyl(2S,4R)-4-(2-((1R,3R)-1-acetoxy-3-((S)—N,3-dimethyl-2-((R)-1-methylpiperidine-2-carboxamido)butanamido)-4-methylpentyl)thiazole-4-carboxamido)-2-methyl-5-(1-methyl-1H-indol-3-yl)pen-tanoate] | 21.1 |  | > 1000 |  | > 1000 | 
14 | CC[C@H](C)[C@H](NC(=O)c1cnccn1)C(=O)N(C)[C@H](C[C@@H](OC(C)=O)c1nc(C(=O)N[C@@H](Cc2ccccc2)C[C@H](C)C(=O)OC)cs1)C(C)C [Tb35, (2S,4R)-methyl 4-(2-((1R,3R)-1-acetoxy-3-((2S,3S)—N,3-dimethyl-2-(pyrazine-2-carboxamido)pentanamido)-4-methylpentyl)thiazole-4-carboxamido)-2-methyl-5-phenylpentanoate] | > 500 |  | > 1000 |  | > 1000 | 
